Source: patent US20260216138A1, “IDENTIFICATION OF OTUD7B INHIBITOR 7BI AND ITS APPLICATION IN REDUCING GROWTH OF NSCLC AND LEUKEMIA CELLS” (The University of North Carolina at Chapel Hill, priority 2023, published 2026)

Experiments:
Assay type in all cases: cell-based
K562 cells = assay: Leukemia cell proliferation, K562; details: 72 hrs
Description: (§1) 2,000 cells from indicated NSLC cell lines were seeded into each well of 96-well plates. Cell viability was measured 3 days post-treatment using MTT assays following manufacturer's instruction. For cell viability assays with inhibitor treatment, 2,000 cells from indicated NSLC and HEK293 cell lines were seeded in 96-well plate. Inhibitor was added the next day at indicated concentration and cell viability was measured after 3-day treatment. For cell proliferation assays in THP1, K562 and HL60 cell lines, 1×10^6 cells from each indicated cell line were seeded in 12.5 cm2 cell culture flask and cells were counted by hemocytometer under microscope at indicated time to monitor cell proliferation. To test inhibitor effects on THP1, K562 and HL60 cell growth, 2×10^5 cells were seeded in 12.5 cm2 cell culture flask. Inhibitor was added the next day at indicated concentrations and cell number was counted after 3 days treatment. Three independent experiments were performed to generate error bars.

Akt-pS473 = Akt-pS473 immunoblot in HEK293 cells
Description: Cells were harvested and lysed in EBC buffer (50 mM Tris pH 7.5, 120 mM NaCl, 0.5% NP-40) supplemented with protease inhibitor cocktail (EDTA-free, mini-tablet) (Bimake) and phosphatase inhibitor cocktail (Bimake) by rotating in the cold room for 10 min followed by high-speed centrifugation at 4° C. The protein concentrations in supernatants of whole cell lysates were measured by NanoDrop OneC using the Bio-Rad Bradford protein assay reagent. Equal amounts of whole cell lysates were resolved on SDS-PAGE and immunoblotted with indicated antibodies. For immunoprecipitation analysis, 1 mg of total cell lysate was incubated with the indicated beads for 3-4 hr at 4° C. The recovered immuno-complexes were washed thoroughly three times with NETN buffer (20 mM Tris, pH 8.0, 100 mM NaCl, 1 mM EDTA and 0.5% NP-40) before being resuspended in SDS sample buffer and resolved on SDS-PAGE and immunoblotted with indicated antibodies. […]

OTUD7B binding to GβL = target: T1, OTUD7B binding to GβL (Homo sapiens, UniProt Q6GQQ9); assay: OTUD7B binding to GβL
T1 sequence (Q6GQQ9 1-843): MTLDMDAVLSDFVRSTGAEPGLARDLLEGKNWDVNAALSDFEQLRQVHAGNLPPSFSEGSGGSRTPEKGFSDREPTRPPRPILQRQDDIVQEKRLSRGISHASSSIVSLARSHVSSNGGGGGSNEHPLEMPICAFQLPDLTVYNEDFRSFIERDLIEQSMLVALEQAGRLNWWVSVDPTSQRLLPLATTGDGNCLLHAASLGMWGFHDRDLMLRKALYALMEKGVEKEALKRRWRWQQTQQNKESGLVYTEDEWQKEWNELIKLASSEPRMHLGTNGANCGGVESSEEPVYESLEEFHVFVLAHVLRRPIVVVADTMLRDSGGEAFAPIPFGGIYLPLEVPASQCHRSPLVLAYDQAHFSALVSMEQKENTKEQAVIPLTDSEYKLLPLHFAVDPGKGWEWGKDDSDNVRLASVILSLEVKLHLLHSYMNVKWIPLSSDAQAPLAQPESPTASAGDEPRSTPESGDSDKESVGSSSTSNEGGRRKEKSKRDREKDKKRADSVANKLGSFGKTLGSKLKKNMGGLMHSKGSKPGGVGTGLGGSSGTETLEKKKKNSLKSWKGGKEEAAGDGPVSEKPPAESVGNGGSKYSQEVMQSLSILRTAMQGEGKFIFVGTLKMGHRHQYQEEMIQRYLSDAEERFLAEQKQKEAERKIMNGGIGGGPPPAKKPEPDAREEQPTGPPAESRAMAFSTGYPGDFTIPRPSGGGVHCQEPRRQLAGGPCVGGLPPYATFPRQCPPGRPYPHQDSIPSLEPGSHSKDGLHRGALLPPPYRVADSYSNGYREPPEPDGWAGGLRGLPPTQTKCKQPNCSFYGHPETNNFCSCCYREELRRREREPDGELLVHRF
Description: (§2) Cells were harvested and lysed in EBC buffer (50 mM Tris pH 7.5, 120 mM NaCl, 0.5% NP-40) supplemented with protease inhibitor cocktail (EDTA-free, mini-tablet) (Bimake) and phosphatase inhibitor cocktail (Bimake) by rotating in the cold room for 10 min followed by high-speed centrifugation at 4° C. The protein concentrations in supernatants of whole cell lysates were measured by NanoDrop OneC using the Bio-Rad Bradford protein assay reagent. Equal amounts of whole cell lysates were resolved on SDS-PAGE and immunoblotted with indicated antibodies. For immunoprecipitation analysis, 1 mg of total cell lysate was incubated with the indicated beads for 3-4 hr at 4° C. The recovered immuno-complexes were washed thoroughly three times with NETN buffer (20 mM Tris, pH 8.0, 100 mM NaCl, 1 mM EDTA and 0.5% NP-40) before being resuspended in SDS sample buffer and resolved on SDS-PAGE and immunoblotted with indicated antibodies.

[1] = tested on: K63-linked ubiquitination of GβL; assay: Endogenous K63-linked GβL ubiquitination (GβL-IP); details: 16 hrs
Description: as §2

HEK293 cells = assay: Cell viability by MTT assay in HEK293 cells; details: 72 hrs
Description: as §1

## Cc1cc(NC(=O)c2cnn(C)c2C(=O)Nc2cc(C)nn2C2CCCC2)n(C2CCCC2)n1 [7Bi]
K562 cells
  cell proliferation: reduced proliferation
Akt-pS473; HPLC purified 7Bi (~99% purity) compared with 90% purity
  downregulation of Akt-pS473 signals by purified 7Bi: retained its ability
Akt-pS473; indicated doses, 16 hrs
  suppression of Akt-pS473: efficiently suppressed Akt-pS473
OTUD7B binding to GβL
  OTUD7B binding to GβL: nor significantly affected OTUD7B binding to GβL
[1]; A549 cells
  K63-linked ubiquitination of GβL at endogenous levels: increased K63-linked ubiquitination of GβL at endogenous levels
[1]; K562 cells
  K63-linked GβL ubiquitination at endogenous levels: increased K63-linked GβL ubiquitination at endogenous levels
HEK293 cells
  cell growth (MTT): reduced growth
